Results as given in patent US20010051191A1, “Composition and method for treating non-bacterial cystitis” (priority 2000, published 2001).

Columns and labels:
[1] = test system: patients without positive bacterial cultures localized to the prostatic fluid; assay: Example II: double blind placebo-controlled study using 30 patients; assay type: in vivo
Experimental: A double blind study using 30 patients without positive bacterial cultures localized to the prostatic fluid are enrolled in a double blind study. Seventeen of the patients receive a composition comprised of quercetin in amount of 500 milligrams, bromelin in an amount of 10 milligrams, and papain in an amount of 10 milligrams as the active ingredients thereof. After a randomized study is completed, an additional fifteen patients are treated in an open label study with only the […]. […] The mean symptom score improves from 21.0 to 13.1 in the group receiving quercetin, but from 20.2 to 18.8 in the placebo group. This represents an improvement of 35%. In those patients which receive only the quercetin, without the papain and bromelin, with obtainable secretions, the white blood cell count in the decreases from 16.8 to 5.3, versus a decrease from 13.1 to 8.3 in the placebo patients.

[2] = Tests of bioavailability of quercetin alone; assay type: in vivo; conditions: transmural intestinal absorption relatively low
[3] = test system: chronic interstitial cystitis syndromes; conditions: quercetin alone; cited from earlier work

- bioavailability [2]: does not have a high bioavailability
SMILES: O=c1c(O)c(-c2ccc(O)c(O)c2)oc2cc(O)cc(O)c12 [quercetin]
- mean symptom score, after treatment ([1]; end value of the group): 13.1
- improvement of mean symptom score ([1]; human, in vivo): 35%
- white blood cell count in secretions, after treatment ([1]; patients with obtainable secretions, end value): 5.3
- white blood cell count in secretions, before treatment ([1]; patients with obtainable secretions, start value): 16.8
- mean symptom score, before treatment ([1]; start value of the group): 21.0
- symptomatic response of patients [3]: significant
